Columns and labels:
Format in all cases: cell-based
[1] = test system: HL-60; assay: Growth inhibition assay (MTT), HL-60; details: Homo sapiens, HL-60 cells, 48 hours exposure, read-out: HL-60 IC50 (μM) Mean ± S.E.
Method: (§1) Antiproliferative Activity Against Human Normal and Cancer Cell Lines Using Growth Inhibition Assay (GI50)
(§2) The compounds of the invention were subjected to growth inhibition assay. Cells were seeded in 96-well plastic plates and exposed to MPT0L132, MPT0L133, and MPT0L134 for 48 hours. Cell viability was assessed using the 3-(4,5-dimethylthiazol-2-yl)-2,5-diphenyltetrazolium bromide assay. Growth inhibition was expressed as the percentage of surviving cells in drug-treated versus DMSO-treated control cells.

[2] = test system: HCT-116; assay: Growth inhibition assay (MTT), HCT-116; details: Homo sapiens, HCT-116 cells, 48 hours exposure, read-out: HCT-116 GI50 (μM) Mean ± S.E.
Method: as §1, §2

[3] = test system: MDA-MB-231; assay: Growth inhibition assay (MTT), MDA-MB-231; details: Homo sapiens, MDA-MB-231 cells, 48 hours exposure, read-out: MDA-MB-231 GI50 (μM) Mean ± S.E.
Method: as §1, §2

[4] = test system: Hep3B; assay: Growth inhibition assay (MTT), Hep3B; details: Homo sapiens, Hep3B cells, 48 hours exposure, read-out: Hep3B GI50 (μM) Mean ± S.E.
Method: as §1, §2

Compound | IC50 [1] [µM] | GI50 [2] [µM] | GI50 [3] [µM] | GI50 [4] [µM]
CN(C)CCNC(=O)c1ccc(CNC2=C(Cl)C(=O)c3ccccc3C2=O)cc1 [MPT0L132, 4-(((3-chloro-1,4-dioxo-1,4-dihydronaphthalen-2-yl)amino)methyl)-N-(2-(dimethylamino)ethyl)benzamide] | 2.5 ± 0.15 | 3.69 ± 0.24 | 10 to 30 | 10 to 30
O=C(NCCN1CCCC1)c1ccc(CNC2=C(Cl)C(=O)c3ccccc3C2=O)cc1 [MPT0L133, 4-(((3-chloro-1,4-dioxo-1,4-dihydronaphthalen-2-yl)amino)methyl)-N-(2-(pyrrolidin-1-yl)ethyl)benzamide] | 1.67 ± 0.27 | 4.04 ± 0.65 | 10 to 30 | 10 to 30
CCN(CC)CCNC(=O)c1ccc(CNC2=C(Cl)C(=O)c3ccccc3C2=O)cc1 [MPT0L134, 4-(((3-chloro-1,4-dioxo-1,4-dihydronaphthalen-2-yl)amino)methyl)-N-(2-(diethylamino)ethyl)benzamide] | 2.52 ± 0.12 | 3.53 ± 0.24 | 10 to 30 | 10 to 30
